Reference: patent US6642222B2, “Pyrano, piperidino, and thiopyrano compounds and methods of use” (Abbott Laboratories, priority 1998, dated 2003)

Legend:
[1] = system: Guinea-Pig Bladder (GPB) Cells; test: Membrane Hyperpolarization (MHP) assay, DiBAC(4)3 / FLIPR; settings: Cavia porcellus; for EC50: membrane hyperpolarization, GPB cells; for Emax: read-out: Maximal Response (% P1075), maximal steady-state hyperpolarization, normalized to 10 μM P1075 (100%)

Row | EC50 [1] [nM] | melting point [°C] | SMILES | Emax [1] [%]
1 | 71 | > 260 | CC1(C)CCC2=C(C1=O)C(c1ccc(F)c(Br)c1)C1=C(COCC1=O)N2 (centres unmarked) [Example 41, 5-(3-bromo-4-fluorophenyl)-7,7-dimethyl-5,8,9,10-tetrahydro-1H-pyrano[3,4-b]quinoline-4,6(3H,7H)-dione] | 66
2 | 970 | > 260 | O=C1COCC2=C1C(c1ccc(F)c(Br)c1)C1=C(CNC1=O)N2 (centres unmarked) [Example 27, 9-(3-bromo-4-fluorophenyl)-2,3,5,9-tetrahydropyrano[3,4-b]pyrrolo[3,4-e]pyridine-1,8(4H,7H)-dione] | 87
3 | – | 246 to 248 | CCC1OC(=O)C2=C1NC1=C(C(=O)COC1)C2c1ccc(F)c(Br)c1 (single isomer, unassigned) [Example 96, 9-(3-bromo-4-fluorophenyl)-3-ethyl-5,9-dihydro-3H-furo[3,4-b]pyrano[4,3-e]pyridine-1,8(4H,7H)-dione] | –
4 | – | 213 to 216 | C[C@@H]1OC(=O)C2=C1NC1=C(C(=O)COC1)[C@H]2c1ccc(F)c(Br)c1 (relative stereo) [Example 91, (cis)-9-(3-bromo-4-fluorophenyl)-3-methyl-5,9-dihydro-3H-furo[3,4-b]pyrano[4,3-e]pyridine-1,8(4H,7H)-dione] | –

Continued, compound first:

Row | SMILES | EC50 [1] [nM] | melting point [°C] | Emax [1] [%]
5 | CCCC1OC(=O)C2=C1NC1=C(C(=O)COC1)C2c1ccc(F)c(Br)c1 (single isomer, unassigned) [Example 98, 9-(3-bromo-4-fluorophenyl)-3-propyl-5,9-dihydro-3H-furo[3,4-b]pyrano[4,3-e]pyridine-1,8(4H,7H)-dione] | – | 219 to 220 | –
6 | C[C@H]1OCC2=C(C1=O)[C@H](c1ccc(F)c(Br)c1)C1=C(COC1=O)N2 (relative stereo) [Example 85, (cis)-9-(3-bromo-4-fluorophenyl)-7-methyl-5,9-dihydro-3H-furo[3,4-b]pyrano[4,3-e]pyridine-1,8(4H,7H)-dione] | – | 234 to 239 | –
7 | CCCC1OC(=O)C2=C1NC1=C(C(=O)COC1)C2c1ccc(F)c(Br)c1 (single isomer, unassigned) [Example 97, 9-(3-bromo-4-fluorophenyl)-3-propyl-5,9-dihydro-3H-furo[3,4-b]pyrano[4,3-e]pyridine-1,8(4H,7H)-dione] | – | 206 to 208 | –
8 | CN1CC(=O)C2=C(C1)NC1=C(C(=O)CCC1)C2c1ccc(F)c(Br)c1.Cl (centres unmarked) [Example 3, 5-(3-bromo-4-fluorophenyl)-2-methyl-2,3,5,8,9,10-hexahydrobenzo[b][1,7]naphthyridine-4,6(1H, 7H)-dione Hydrochloride] | 27000 | 248 to 250 | 41
